The values below come from US20120129833A1, “CYCLIC KETOENOLS FOR THERAPY” (BAYER PHARMA AKTIENGESELLSCHAFT, priority 2010, published 2012).

Assay [1] addresses T1, recombinant human ACC1 (acetyl-CoA carboxylase 1) (Homo sapiens, UniProt Q13085).
T1 construct: NM_198834, amino acids 39—end; FLAG (C); made in house; host or cells: baculovirus-transfected insect cells (Hi5)
Nature of the assay: Human ACC1 enzyme assay (HTRF ADP detection).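 Further: ADP by-product quantified by competitive HTRF immunoassay with europium cryptate anti-ADP antibody and d2-labelled ADP, read after 1 h binding at 22 °C, enzyme near 2.5 ng/µl.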 The format is biochemical. The following applies: 50 μM ATP, 20 μM acetyl-CoA, 15 min pre-incubation, 20 min at 22° C.; read-out: ACC 1 IC50. On the technique in general: Time-resolved FRET reads energy transfer from a long-lived donor to a nearby acceptor.
Protocol: The basic principle of the assay is the measurement of adenosine diphosphate (ADP), which is formed as a by-product, by means of an HTRF®-based competitive immunoassay (HTRF=Homogeneous Time Resolved Fluorescence).
(§1) The amount of complex of d2-labelled ADP and europium cryptate-labelled anti-ADP antibody was then determined by measuring the resonance energy transfer of europium cryptate to d2.

The target in assay [2] is T2, ACC2 (acetyl-CoA carboxylase 2) (Homo sapiens, UniProt O00763).
T2 construct: catalogue no; 50201, amino acids 39—end, expressed in baculovirus-transfected Sf9 insect cells; His (C); purchased BPS Bioscience (San Diego, Calif.) 50201; host or cells: baculovirus-transfected Sf9 insect cells
Put plainly: Human ACC2 enzyme assay (HTRF ADP detection). The assay is classed as biochemical. As to conditions: 20 μM acetyl-CoA, 15 min pre-incubation, 20 min at 22° C.; read-out: ACC 2 IC50.
Protocol: The inhibitory activity of the substances of this invention with regard to acetyl-CoA carboxylase 2 (ACC2) was measured using the ACC2 assay described in the paragraphs below. The basic principle of the assay is the measurement of adenosine diphosphate (ADP), which is formed as a by-product, by means of an HTRF®-based competitive immunoassay (HTRF=Homogeneous Time Resolved Fluorescence).
as §1

Some results are limits rather than exact numbers.

T2 sequence (O00763 39-2458 limits assumed): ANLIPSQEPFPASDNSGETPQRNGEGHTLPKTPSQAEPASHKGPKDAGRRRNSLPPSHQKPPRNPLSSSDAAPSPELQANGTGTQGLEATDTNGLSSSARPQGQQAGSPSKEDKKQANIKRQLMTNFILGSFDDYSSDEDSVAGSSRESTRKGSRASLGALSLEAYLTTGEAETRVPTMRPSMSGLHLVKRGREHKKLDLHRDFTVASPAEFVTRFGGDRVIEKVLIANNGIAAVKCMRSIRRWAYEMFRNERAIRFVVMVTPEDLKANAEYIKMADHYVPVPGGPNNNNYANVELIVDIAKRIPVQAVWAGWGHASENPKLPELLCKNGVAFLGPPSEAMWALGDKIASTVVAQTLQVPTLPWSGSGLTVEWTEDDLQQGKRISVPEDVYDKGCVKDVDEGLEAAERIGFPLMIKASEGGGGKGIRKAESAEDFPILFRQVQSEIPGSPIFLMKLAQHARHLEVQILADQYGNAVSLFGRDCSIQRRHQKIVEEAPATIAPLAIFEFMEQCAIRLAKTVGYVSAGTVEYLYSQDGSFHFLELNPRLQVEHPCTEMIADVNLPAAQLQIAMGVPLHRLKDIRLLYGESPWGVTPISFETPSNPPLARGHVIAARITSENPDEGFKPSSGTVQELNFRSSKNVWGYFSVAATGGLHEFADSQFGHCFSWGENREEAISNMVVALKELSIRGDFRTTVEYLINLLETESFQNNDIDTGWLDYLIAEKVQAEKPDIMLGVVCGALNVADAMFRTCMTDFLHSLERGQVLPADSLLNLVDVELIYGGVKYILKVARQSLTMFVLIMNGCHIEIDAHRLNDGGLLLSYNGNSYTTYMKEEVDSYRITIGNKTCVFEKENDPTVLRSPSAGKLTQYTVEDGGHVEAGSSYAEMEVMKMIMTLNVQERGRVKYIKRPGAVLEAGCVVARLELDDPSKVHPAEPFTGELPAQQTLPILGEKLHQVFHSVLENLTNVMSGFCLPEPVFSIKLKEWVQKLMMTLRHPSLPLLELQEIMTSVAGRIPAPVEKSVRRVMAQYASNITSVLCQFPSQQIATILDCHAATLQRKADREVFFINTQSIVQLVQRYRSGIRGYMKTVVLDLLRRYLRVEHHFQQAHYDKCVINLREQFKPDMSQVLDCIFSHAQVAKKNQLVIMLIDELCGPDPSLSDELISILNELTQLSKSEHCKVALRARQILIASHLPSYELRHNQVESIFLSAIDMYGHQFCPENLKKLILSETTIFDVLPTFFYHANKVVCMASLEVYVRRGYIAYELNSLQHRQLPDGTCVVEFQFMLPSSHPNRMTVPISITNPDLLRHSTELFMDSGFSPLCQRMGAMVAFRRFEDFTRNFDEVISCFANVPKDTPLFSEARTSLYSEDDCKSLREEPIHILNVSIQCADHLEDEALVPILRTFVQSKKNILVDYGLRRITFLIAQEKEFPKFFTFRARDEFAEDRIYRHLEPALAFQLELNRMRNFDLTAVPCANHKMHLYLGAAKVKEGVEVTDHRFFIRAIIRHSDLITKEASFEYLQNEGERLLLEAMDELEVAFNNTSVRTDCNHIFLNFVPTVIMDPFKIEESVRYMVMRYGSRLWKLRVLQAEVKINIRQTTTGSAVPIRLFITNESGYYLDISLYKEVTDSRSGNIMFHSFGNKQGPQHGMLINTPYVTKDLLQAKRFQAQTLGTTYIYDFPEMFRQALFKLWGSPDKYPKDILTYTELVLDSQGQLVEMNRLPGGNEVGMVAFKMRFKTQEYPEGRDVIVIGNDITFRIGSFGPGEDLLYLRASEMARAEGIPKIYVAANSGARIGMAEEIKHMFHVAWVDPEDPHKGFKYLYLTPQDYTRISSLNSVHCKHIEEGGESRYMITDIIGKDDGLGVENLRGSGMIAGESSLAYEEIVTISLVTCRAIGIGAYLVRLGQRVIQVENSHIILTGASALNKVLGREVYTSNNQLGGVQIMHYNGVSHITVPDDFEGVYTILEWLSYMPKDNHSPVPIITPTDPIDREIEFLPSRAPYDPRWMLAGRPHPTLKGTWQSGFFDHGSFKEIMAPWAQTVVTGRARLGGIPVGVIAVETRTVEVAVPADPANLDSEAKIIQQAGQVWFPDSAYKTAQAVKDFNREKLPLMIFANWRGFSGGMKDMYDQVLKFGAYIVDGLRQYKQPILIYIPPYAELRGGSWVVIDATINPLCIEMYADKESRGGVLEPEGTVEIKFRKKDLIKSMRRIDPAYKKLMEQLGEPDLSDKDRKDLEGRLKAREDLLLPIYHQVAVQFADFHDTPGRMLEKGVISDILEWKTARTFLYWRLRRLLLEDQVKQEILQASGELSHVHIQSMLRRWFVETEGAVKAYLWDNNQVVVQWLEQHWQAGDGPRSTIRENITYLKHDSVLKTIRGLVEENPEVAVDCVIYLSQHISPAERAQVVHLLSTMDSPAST

As a reminder, the IC50 is the midpoint of a concentration-inhibition curve. Consider `Cc1ccc(-c2ccc(Cl)cc2)cc1C1=C(O)C2(CCCC2)CC1=O` [Example 6-4, 3-(4′-chloro-4-methylbiphenyl-3-yl)-4-hydroxyspiro[4.4]non-3-en-2-one], for which the IC50 was 333 nM in assay [1] and 3060 nM in assay [2].
As to `CCC1CCC2(CC1)CC(=O)C(c1cc(-c3ccc(Cl)cc3)ccc1C)=C2O` (stereo not shown) [Example 6-5, 3-(4′-chloro-4-methylbiphenyl-3-yl)-8-ethyl-4-hydroxyspiro[4.5]dec-3-en-2-one], the IC50 in assay [1] amounted to 754 nM; in assay [2], 565 nM.
`CCCC1CCC2(CC1)CC(=O)C(c1cc(-c3ccc(Cl)cc3)ccc1C)=C2O` (stereo not shown) [Example 6-6, 3-(4′-chloro-4-methylbiphenyl-3-yl)-4-hydroxy-8-propylspiro[4.5]dec-3-en-2-one]: the IC50 was determined as 923 nM in assay [1] and 783 nM in assay [2].
On the same counts, the results for `Cc1ccc(-c2ccc(Cl)cc2)cc1C1=C(O)C2(CCCCCC2)CC1=O` [Example 6-7, 3-(4′-chloro-4-methylbiphenyl-3-yl)-4-hydroxyspiro[4.6]undec-3-en-2-one] are 467 nM and 654 nM.
Take `Cc1cc(C)c(-c2ccc(Cl)cc2)cc1C1=C(O)C2(CCCCC2)CC1=O` [Example 6-8, 3-(4′-chloro-4,6-dimethylbiphenyl-3-yl)-4-hydroxyspiro[4.5]dec-3-en-2-one]: the figures for the IC50 in assay [1] and in assay [2] were 1380 nM and 127 nM, respectively.
As to `Cc1cc(C)c(-c2ccc(Cl)cc2)c(C)c1C1=C(O)C2(CCCCC2)CC1=O` [Example 6-9, 3-(4′-chloro-2,4,6-trimethylbiphenyl-3-yl)-4-hydroxyspiro[4.5]dec-3-en-2-one], the IC50 in assay [1] was greater than 20000 nM; in assay [2] it was 387 nM.
In the same order, the values of `Cc1ccc(-c2ccc(Cl)cc2)cc1C1=C(O)CC(C)CC1=O` (stereo not shown) [Example 7-1, 2-(4′-chloro-4-methylbiphenyl-3-yl)-3-hydroxy-5-methylcyclohex-2-en-1-one] are 678 nM and greater than 20000 nM.
For `Cc1ccc(-c2ccc(Cl)cc2)cc1C1=C(O)CC2(CCCCC2)CC1=O` [Example 7-2, 3-(4′-chloro-4-methylbiphenyl-3-yl)-4-hydroxyspiro[5.5]undec-3-en-2-one], the IC50 in assay [1] was 578 nM; in assay [2], greater than 20000 nM.
In the same order, the values of `Cc1cc(C)c(-c2ccc(Cl)cc2)cc1C1=C(O)CC(C)(C)CC1=O` [Example 7-3, 2-(4′-chloro-4,6-dimethylbiphenyl-3-yl)-3-hydroxy-5,5-dimethylcyclohex-2-en-1-one] are 1590 nM and 5340 nM.
Take `Cc1cc(C)c(-c2ccc(Cl)cc2)cc1C1=C(O)C(C)(C)CCC1=O` [Example 7-4, 2-(4′-chloro-4,6-dimethylbiphenyl-3-yl)-3-hydroxy-4,4-dimethylcyclohex-2-en-1-one]: the results for the IC50 in assay [1] and in assay [2] were 3670 nM and 3710 nM, respectively.
In the same order, the values of `Cc1ccc(-c2ccc(Cl)cc2)cc1C1=C(O)CC(C)(C)CC1=O` [Example 7-5, 2-(4′-chloro-4-methylbiphenyl-3-yl)-3-hydroxy-5,5-dimethylcyclohex-2-en-1-one] are 610 nM and greater than 20000 nM.
In the same order, the values of `Cc1ccc(-c2ccc(F)cc2)c(C)c1C1C(=O)N2CCCCN2C1=O` [Example 8-1, 2-(4′-fluoro-2,4-dimethylbiphenyl-3-yl)tetrahydro-1H-pyrazolo[1,2-a]pyridazine-1,3(2H)-dione] are 2460 nM and greater than 20000 nM.
In the same order, the values of `O=C1C(c2cc(-c3ccc(Cl)cc3)ccc2Cl)C(=O)N2CCCCN12` [Example 8-2, 2-(4,4′-dichlorobiphenyl-3-yl)tetrahydro-1H-pyrazolo[1,2-a]pyridazine-1,3(2H)-dione] are 891 nM and greater than 20000 nM.
For the compound `Cc1ccc(-c2ccc(Cl)cc2)cc1C1C(=O)N2CCCCN2C1=O` [Example 8-3, 2-(4′-chloro-4-methylbiphenyl-3-yl)tetrahydro-1H-pyrazolo[1,2-a]pyridazine-1,3(2H)-dione], the IC50 was 1140 nM in assay [1] and greater than 20000 nM in assay [2].
For `O=C1C(c2cc(-c3ccc(F)c(Cl)c3)ccc2Cl)C(=O)N2CCCCN12` [Example 8-4, 2-(3′,4-dichloro-4′-fluorobiphenyl-3-yl)tetrahydro-1H-pyrazolo[1,2-a]pyridazine-1,3(2H)-dione], the IC50 in assay [1] was 3180 nM; in assay [2], greater than 20000 nM.
For the compound `Cc1ccc(-c2ccc(F)cc2F)cc1C1C(=O)N2CCOCCN2C1=O` [Example 8-5, 8-(2′,4′-difluoro-4-methylbiphenyl-3-yl)tetrahydro-7H-pyrazolo[1,2-d][1,4,5]oxadiazepine-7,9(8H)-dione], the results for the IC50 in assay [1] and in assay [2] were 2080 nM and greater than 20000 nM, respectively.
On the same counts, the results for `Cc1ccc(-c2ccc(Cl)cc2)cc1C1C(=O)N2CCOCCN2C1=O` [Example 8-6, 8-(4′-chloro-4-methylbiphenyl-3-yl)tetrahydro-7H-pyrazolo[1,2-d][1,4,5]oxadiazepine-7,9(8H)-dione] are 1380 nM and greater than 20000 nM.
On the same counts, the results for `Cc1ccc(-c2ccc(F)cc2)c(C)c1C1C(=O)N2CCOCCN2C1=O` [Example 8-7, 8-(4′-fluoro-2,4-dimethylbiphenyl-3-yl)tetrahydro-7H-pyrazolo[1,2-d][1,4,5]oxadiazepine-7,9(8H)-dione] are 2380 nM and greater than 20000 nM.
As to `Cc1ccc(-c2ccc(Cl)cc2)c(C)c1C1C(=O)N2CCOCCN2C1=O` [Example 8-8, 8-(4′-chloro-2,4-dimethylbiphenyl-3-yl)tetrahydro-7H-pyrazolo[1,2-d][1,4,5]oxadiazepine-7,9(8H)-dione], the IC50 was 936 nM in assay [1] and 16900 nM in assay [2].
For `O=C1C(c2cc(-c3ccc(Cl)cc3Cl)ccc2Cl)C(=O)N2CCOCCN12` [Example 8-9, 8-(2′,4,4′-trichlorobiphenyl-3-yl)tetrahydro-7H-pyrazolo[1,2-d][1,4,5]oxadiazepine-7,9(8H)-dione], the IC50 in assay [1] is 457 nM; in assay [2], greater than 20000 nM.
On the same counts, the results for `O=C1C(c2cc(-c3ccc(Cl)c(Cl)c3)ccc2Cl)C(=O)N2CCOCCN12` [Example 8-10, 8-(3′,4,4′-trichlorobiphenyl-3-yl)tetrahydro-7H-pyrazolo[1,2-d][1,4,5]oxadiazepine-7,9(8H)-dione] are 1130 nM and greater than 20000 nM.
With `O=C1C(c2cc(-c3ccc(F)cc3F)ccc2Cl)C(=O)N2CCOCCN12` [Example 8-11, 8-(4-chloro-2′,4′-difluorobiphenyl-3-yl)tetrahydro-7H-pyrazolo[1,2-d][1,4,5]oxadiazepine-7,9(8H)-dione], the IC50 in assay [1] was 713 nM; in assay [2], greater than 20000 nM.
Take `Cc1ccc(-c2ccc(Cl)cc2)cc1C1C(=O)N2CC(C)(F)CN2C1=O` [Example 8-12, 2-(4′-chloro-4-methylbiphenyl-3-yl)-6-fluoro-6-methyldihydro-1H,5H-pyrazolo[1,2-a]pyrazole-1,3(2H)-dione]: the IC50 was 587 nM in assay [1] and greater than 20000 nM in assay [2].
On the same counts, the results for `CC1(F)CN2C(=O)C(c3cc(-c4ccc(Cl)cc4)ccc3Cl)C(=O)N2C1` [Example 8-13, 2-(4,4′-dichlorobiphenyl-3-yl)-6-fluoro-6-methyldihydro-1H,5H-pyrazolo[1,2-a]pyrazole-1,3(2H)-dione] are 640 nM and greater than 20000 nM.
For the compound `Cc1ccc(-c2ccc(Cl)cc2)cc1C1C(=O)N(C)N(C)C1=O` [Example 8-14, 4-(4′-chloro-4-methylbiphenyl-3-yl)-1,2-dimethyl-1H-pyrazole-3,5(2H,4H)-dione], the IC50 in assay [1] is 2400 nM; in assay [2], greater than 20000 nM.
On the same counts, the results for `CN1C(=O)C(c2cc(-c3ccc(Cl)cc3)ccc2Cl)C(=O)N1C` [Example 8-15, 4-(4,4′-dichlorobiphenyl-3-yl)-1,2-dimethyl-1H-pyrazole-3,5(2H,4H)-dione] are 1970 nM and greater than 20000 nM.
In the same order, the values of `Cc1ccc(-c2ccc(Cl)cc2)cc1C1C(=O)N2C3CCC(C3)N2C1=O` (stereo not shown) [Example 8-16, 2-(4′-chloro-4-methylbiphenyl-3-yl)tetrahydro-1H-5,8-methanopyrazolo[1,2-a]pyridazine-1,3(2H)-dione] are 662 nM and greater than 20000 nM.
With `O=C1C(c2cc(-c3ccc(Cl)cc3)ccc2Cl)C(=O)N2C3CCC(C3)N12` (stereo not shown) [Example 8-17, 2-(4,4′-dichlorobiphenyl-3-yl)tetrahydro-1H-5,8-methanopyrazolo[1,2-a]pyridazine-1,3(2H)-dione], the IC50 is 913 nM in assay [1] and greater than 20000 nM in assay [2].
On the same counts, the results for `Cc1ccc(-c2ccc(Cl)cc2)cc1C1=C(O)CC(C)(C)NC1=O` [Example 9-1, 3-(4′-chloro-4-methylbiphenyl-3-yl)-4-hydroxy-6,6-dimethyl-5,6-dihydropyridin-2(1H)-one] are 319 nM and greater than 20000 nM.
On the same counts, the results for `Cc1ccc(-c2ccc(Cl)cc2)cc1C1=C(O)C(C)(C)CNC1=O` [Example 9-2, 3-(4′-chloro-4-methylbiphenyl-3-yl)-4-hydroxy-5,5-dimethyl-5,6-dihydropyridin-2(1H)-one] are 806 nM and 9080 nM.
For `Cc1ccc(-c2ccc(Cl)cc2)cc1C1=C(O)C2(CCCCC2)CNC1=O` [Example 9-3, 4-(4′-chloro-4-methylbiphenyl-3-yl)-5-hydroxy-2-azaspiro[5.5]undec-4-en-3-one], the IC50 in assay [1] amounted to 1060 nM; in assay [2], 4280 nM.
`Cc1ccc(-c2ccc(Cl)cc2)cc1C1=C(O)CC(C)(C)N(C)C1=O` [Example 9-4, 3-(4′-chloro-4-methylbiphenyl-3-yl)-4-hydroxy-1,6,6-trimethyl-5,6-dihydropyridin-2(1H)-one]: the values for the IC50 in assay [1] and in assay [2] were 5380 nM and greater than 20000 nM, respectively.
